From patent US20190145961A1, “PPAR AGONIST OR LXR AGONIST FOR USE IN THE TREATMENT OF SYSTEMIC LUPUS ERYTHEMATOSUS BY MODULATION OF LAP ACTIVITY” (Washington University, priority 2016, published 2019) come the findings set out here.

Assay type in all cases: cell-based
In experiment [1] the test system is Bone marrow-derived macrophages (BMM) from Rubicon−/− mice. The experiment in a line: IL-10 production by Rubicon−/− bone marrow-derived macrophages co-cultured with apoptotic thymocytes (ELISA). The settings on record: 60 μM; Rubicon-deficient (LAP-deficient) BMM, apoptotic thymocytes 10:1, 18 hours co-culture, supernatant ELISA; versus control treatment (FIG. 1C). The procedure:
Bone marrow-derived macrophages (BMM) were generated as previously described from Rubicon−/− mice and wild-type littermates. Macrophages were co-cultured with UV-irradiated apoptotic thymocytes (at a ratio of 10 apoptotic cells:1 macrophage) in the presence or absence of PPARγ agonists Rosiglitazone (ROS, 20 or 60 μM) or Tesaglitazar (TES, 6 or 20 μM). NT indicates no treatment. After 18 hours of co-culture, supernatants were collected and analyzed for IL-10 production via ELISA (FIG. 1A). […] Thus, PPAR agonists can be effective at restoring the LAP phenotype in LAP-deficient cells.
Bone marrow-derived macrophages (BMM) were generated as previously described from Rubicon−/− mice and wild-type littermates. […] NT indicates no treatment. After 18 hours of co-culture, supernatants were collected and analyzed for IL-10 production via ELISA FIG. 1C). […] Thus, LXR agonists can be effective at restoring the LAP phenotype in LAP-deficient cells.
Bone marrow-derived macrophages (BMDMs) were generated from bone marrow progenitors obtained from littermates. Freshly prepared bone marrow cells were cultured in DMEM medium supplemented with 10% heat-inactivated FCS, 2 mM L-glutamine, 10 mM HEPES buffer, 50 μg/ml penicillin, and non-essential amino acids in the presence of 20 ng/ml rmM-CSF (Peprotech) for 6 days. […]

In experiment [2] the test system is Bone marrow-derived macrophages (BMM) from LysM-Cre+ ATG7f/f mice. The experiment in a line: IL-10 production by LysM-Cre+ ATG7f/f bone marrow-derived macrophages co-cultured with apoptotic thymocytes (ELISA). To be noted: 20 μM; LysM-Cre+ ATG7f/f (LAP-deficient) BMM, apoptotic thymocytes 10:1, 18 hours co-culture, supernatant ELISA; versus control treatment (FIG. 1B). As to the method:
Bone marrow-derived macrophages (BMM) were generated as previously described from LysM-Cre− ATG7f/f and LysM-Cre+ ATG7f/f mice. Macrophages were co-cultured with UV-irradiated apoptotic thymocytes (at a ratio of 10 apoptotic cells:1 macrophage) in the presence or absence of PPARβ/δ agonist GW0742 (GW, 20 μM). NT indicates no treatment. After 18 hours of co-culture, supernatants were collected and analyzed for IL-10 production via ELISA (FIG. 1B). […] Thus, PPAR agonists can be effective at restoring the LAP phenotype in LAP-deficient cells.
Bone marrow-derived macrophages (BMDMs) were generated from bone marrow progenitors obtained from littermates. Freshly prepared bone marrow cells were cultured in DMEM medium supplemented with 10% heat-inactivated FCS, 2 mM L-glutamine, 10 mM HEPES buffer, 50 μg/ml penicillin, and non-essential amino acids in the presence of 20 ng/ml rmM-CSF (Peprotech) for 6 days. Nonadherent cells were removed on day 6, and adherent macrophages were detached from plates and re-plated for experimental use.
Apoptosis was induced in wild-type C57Bl/6 thymocytes by UV irradiation (20 J/m^2). Thymocytes were washed twice with PBS prior to experimental use.
On the technique in general: An ELISA detects its analyte on a solid surface through an enzyme-linked reagent.

For experiment [3], the system named is bone marrow derived-macrophages from Rbcn+/+ and Rbcn−/− mice. Description: Cytokine production by Rbcn+/+ and Rbcn−/− bone marrow derived-macrophages stimulated with apoptotic thymocytes (Luminex). The settings on record: apoptotic thymocytes (1:10), 18 hours, supernatants. The procedure:
10^6 bone marrow derived-macrophages from Rbcn+/+ and Rbcn−/− mice were stimulated with apoptotic thymocytes (1:10) in vitro for 18 hours, in the presence of GW501516 at different concentrations (+6 μM, ++20 μM, +++60 μM). Collected supernatants were assayed for cytokine production using Luminex technology.
10^6 bone marrow derived-macrophages from Rbcn+/+ and Rbcn−/− mice were stimulated with apoptotic thymocytes (1:10) in vitro for 18 hours, in the presence of GW501516 at different concentrations (++20 μM, +++60 μM). Collected supernatants were assayed for cytokine production using Luminex technology.
Supernatants were collected from macrophages fed with apoptotic thymocytes for 24 hours. Cytokines released into supernatant were analyzed by Luminex technologies (Millipore). Serum was collected from animals was analyzed by Luminex technologies (Millipore).

Structures are written as SMILES.

`CC(C)CC[C@@H](O)[C@@H](C)[C@H]1CC[C@H]2[C@@H]3CC=C4C[C@@H](O)CC[C@]4(C)[C@H]3CC[C@]12C` [22(R)-hydroxycholesterol]: in experiment [1], the IL-10 production result was “increased IL-10 production”.

For the molecule `Cc1cc(SCc2sc(-c3ccc(C(F)(F)F)c(F)c3)nc2C)ccc1OCC(=O)O` [GW0742], the IL-10 production entry in experiment [2] is “increased IL-10 production”.

With `Cc1cc(SCc2sc(-c3ccc(C(F)(F)F)cc3)nc2C)ccc1OCC(=O)O` [GW501516], in experiment [3] (6, 20, 60 μM, Luminex (FIG. 7)), the “production of inflammatory cytokines in response to AT in vitro” value is given as “reduces production of inflammatory cytokines”. Moreover, in experiment [3] (20, 60 μM, Luminex (FIG. 8)), the “IL-10 production in response to apoptotic cells in LAP-deficient macrophages” value is reported as “restores IL-10 production”.
